What was measured:
[1] = test system: Kultur von Rauwolfia serpentina; test: Elicitation of vallesiachotamine in cell culture; assay type: cell-based; conditions: 200 umol/1, cultivated 4 further days
Description: (§1) B. Glukoseester, Aminosäure- oder andere Kohlenhydrataddukte eingesetzt werden.
Eine Kultur von Rauwolfia serpentina, in LS-Medium 3 Tage gewachsen, wird zu einer Endkonzentration von 200 umol/1 mit Jasmonsäure versetzt und 4 Tage weiterkultiviert. Der methanolische Extrakt des Gewebes enthält eine 8-fache Vallesiacotamin-Konzentration gegenüber der Kontrolle. Der Absolutwert ist 70 mg/I Medium.

[2] = test system: Kultur von Rubia tinctorum; test: Elicitation of anthraquinones (alizarin) in cell culture; assay type: cell-based; conditions: added after 4 days, harvested after 7 days; concentration not given
Description: as §1
Eine Kultur von Rubia tinctorum wird in LS-Medium kultiviert. Nach 4 Tagen werden der Kultur 2',3'-Dihydrojasmonat zugesetzt. Nach 7 Tagen wird die Kultur geerntet und der Anthrachinon-Gehalt bestimmt. Der Zuwachs an Alizarin beträgt das ca. 40-fache gegenüber der Kontrolle.

[3] = test system: Zellsuspensionskultur von Eschscholtzia californica; test: cells; conditions: 120 h, read-out: Steigerung der Benzophenanthridin-Produktion
Description: (§3) Die Zellkultur wird in Flüssigmedium kultiviert und kann entweder in entsprechenden Kulturgefäßen oder in Fermentern herangezogen werden. Nach einer Anwachsphase von 2 bis 10 Tagen wird dem Medium eine in Ethanol gelöste Verbindung der Formel (I) zugesetzt. […] Nach Bildung der maximalen Konzentration an Sekundärstoffen wird der Versuch durch Separierung der Zellen vom Medium abgebrochen und die Sekundärstoffe werden anschließend nach bekannten Verfahren aus dem Zellüberstand oder den Zellen isoliert.
(§4) Einer Zellsuspensionskultur von Eschscholtzia californica, die in 1 Liter LS-Nährmedium (Linsmaier, E. M., Skoog, F., Physiol. Plant 18, 100 (1965)) herangewachsen ist und deren Frischgewicht 200 g beträgt, wird Methyljasmonat zu einer Endkonzentration von 20 umol/1 zugesetzt. Die Kultur wird für 5 Tage weiterkultiviert, anschließend mit 200 ml salzsaurem Ethanol (1,7 ml HCI konz./1 I Ethanol) 2 Stunden lang bei 60 ° C extrahiert.

Kultur von Glycine max = test: cells; conditions: 144 h, read-out: höhere Konzentration an Daidcein- und Genistein-Glycosiden
Description: Die Zellkultur wird in Flüssigmedium kultiviert und kann entweder in entsprechenden Kulturgefäßen oder in Fermentern herangezogen werden. Nach einer Anwachsphase von 2 bis 10 Tagen wird dem Medium eine in Ethanol gelöste Verbindung der Formel (I) zugesetzt.
Eine Kultur von Glycine max wird mit 330 g Frischgewicht in 1 Liter 4x-Medium (Gamborg, Miller, Ojima, Experiment Research 50, 151 - 158 (1968)), 2,4-D 2 mg/I, NES 0,5 mg/I, IES 0,5 mg/I, Kinetin 0,2 mg/I versetzt. 3 Tage später wird Methyljasmonat zu einer Endkonzentration von 250 umol/1 zugesetzt. Nach einer Kultivierungsperiode von 6 Tagen wird die Kultur mit Methanol extrahiert (50 g Frischgewicht/200 ml Methanol; 2 Stunden, 60 ° C).

[4] = test system: Zellsuspensionskultur von Eschscholtzia californica; conditions: 20 umol/1; cultivated 5 further days; per litre culture medium
Description: as §3, §4

Berberinbrückenenzym = test: mRNA hybridisation with a probe against the berberine bridge enzyme after elicitation; assay type: cell-based, Eschscholtzia californica; conditions: elicited as in Beispiel 1
Description: Zellkulturen von Eschscholtzia californica werden - wie in Beispiel 1 beschrieben - mit Methyljasmonat elicitiert. Nach Zugabe des Jasmonats werden im Abstand von je 1 Stunde Aliquots entnommen und die m-RNA extrahiert. Die m-RNA wird mit einer Probe gegen das Berberinbrückenenzym, ein Schlüsselenzym des Benzophenanthridin-Stoffwechsels, hybridisiert. […] Die so induzierte m-RNA ist ein Indiz für die Genaktivierung der an der Elicitierung und an der Alkaloidbiosynthese beteiligten Enzyme. Die Verbindungen der Formel (I) sind demnach in der Lage, reprimierte Sekundärstoffgene zu aktivieren.

[5] = test system: Rauwolfia canescens Zellkultur; test: Induction of new indole alkaloids in cell culture; assay type: cell-based; conditions: 200 µmol/l; cultivated 6 further days; number of new alkaloids
Description: as §1
Einer 4 Tage alten Rauwolfia canescens Zellkultur (LS-Medium) wird 3-Hydroxyjasmonat zu einer Endkonzentration von 200 µmol/l zugesetzt. Die Kultur wird 6 Tage weiterkultiviert und mit einer entsprechenden Kontrolle, der kein 3-Hydroxyjasmonat zugesetzt wurde, verglichen. Dabei zeigt sich, daß in dieser Zellkultur 6 Indolalkaloide gebildet werden, die in der Kontrollkultur nicht vorkommen.

[6] = test system: Kultur von Ruta chalepensis; test: Elicitation of rutacridone in cell culture; assay type: cell-based; conditions: 40 µmol/l; cultivated 5 further days; methanol extract
Description: as §1
Eine 2 Tage alte Kultur von Ruta chalepensis (4x-Medium) wird mit Jasmonatglukosid zu einer Endkonzentration von 40 µmol/l versetzt, für 5 Tage weiterkultiviert und mit Methanol extrahiert. Der Extrakt zeigt einen 18-fachen Rutacridon-Gehalt gegenüber der Kontrolle.

Linum hirsutum = test: Elicitation of lignans; assay type: cell-based; conditions: versus control; concentration of elicitor not given
Description: (§2) Weitere Beispiele sind: Digitalis purpurea: Cardenoloide, die unter dem Einfluß von Jasmonat gegenüber der Kontrolle eine 2-fach gesteigerte Konzentration erreichen; Linum hirsutum: Lignane, die 2,5-fach gesteigert sind; Gossypium herbaceum: Gossipol, 10-fach gesteigert gegenüber der Kontrolle; isolierte Wurzelkulturen von Hyoscyamus alba: Hyoscyamin/Scopolamin: stark parasympatholytische bzw. zentraldämpfende, medizinisch wertvolle Alkaloide, 12-fache Steigerung gegenüber der Kontrolle; Zellkulturen von Colchicum autumnale, die das Gichtmittel Colchicin produzieren, 8-fache Steigerung gegenüber der Kontrolle; Zellkulturen von Cephaelis ipecacuanha, die das arzneilich genutzte Emetin produzieren, das bei Keuchhusten und Bronchialasthma sowie als erbrechungsförderndes Mittel Anwendung findet, 7,5-fache Steigerung gegenüber der Kontrolle; Zellkulturen von Cinchona succirubra bzw. Cinchona ledgeriana, die medizinisch als Antiarhythmikum bzw. als Chemotherapeutikum (Malaria) eingesetzt werden, Steigerung 14-fach; Zellkulturen von Rauwolfia serpentina, die die therapeutisch genutzten Indolalkaloide Reserpin (blutdrucksenkend, sedierend), Serpentin (blutdrucksenkend), Ajmalin (bei Herzrhythmusstörungen), Ajmalicin (Gehirn-durchblutungsfördernd), Yohimbin (durchblutungsfördernd) produzieren.
as §1

[7] = test system: Zellkulturen von Cinchona succirubra bzw. Cinchona ledgeriana; test: Elicitation of secondary metabolites in Cinchona cell cultures; assay type: cell-based; conditions: product not named in b24 (Chinidin und Chinin according to b23); concentration of elicitor not given
Description: Beispiele für Sekundärstoffe, die durch das erfindungsgemäße Verfahren produziert werden können, sind: Atropin und Scopolamin, isoliert aus Hyoscyamus- und Datura-Wurzelkulturen, Colchicin aus Herbstzeitlose, Emetin aus Zell- und Wurzelkulturen der Brechwurz, Codein und Morphin aus Zellkulturen des Schlafmohns, Chinidin und Chinin aus Zellkulturen von Cinchona succirubra bzw. Cinchona ledgeriana, Ajmalin, Rescinamin, Reserpin aus Zellkulturen von Rauwolfia-Arten. Diese Substanzen werden arzneilich eingesetzt. Insbesondere sind also die Stoffgruppen der Indolalkaloide, der Isochinolinalkaloide, der Lignane und Isoprenoide zu nennen. […]

[8] = test system: isolierte Wurzelkulturen von Hyoscyamus alba; assay type: cell-based; conditions: isolated root cultures; concentration of elicitor not given
Description: as §2, §1

Digitalis purpurea = assay type: cell-based; conditions: concentration of elicitor not given
Description: as §2, §1

[9] = test system: Zellkulturen von Cephaelis ipecacuanha; assay type: cell-based; conditions: concentration of elicitor not given
Description: as §2, §1

[10] = test system: Zellkulturen von Colchicum autumnale; assay type: cell-based; conditions: concentration of elicitor not given
Description: as §2, §1

Gossypium herbaceum = assay type: cell-based; conditions: concentration of elicitor not given
Description: as §2, §1

[11] = test system: Zellkultur von Lactuca sativa; test: Elicitation of lettucenin A in cell culture; assay type: cell-based; conditions: 250 µmol/l; extraction 6 days later; not detectable in control culture
Description: as §1
Eine Zellkultur von Lactuca sativa wird 24 Stunden nach dem Überimpfen in LS-Medium mit 3-Hydroxyjasmonsäure zu einer Endkonzentration von 250 µmol/l versetzt. Die Extraktion mit Methanol erfolgt 6 Tage später. Die elicitierten Kulturen enthalten das Custonolid Lettucenin A in einer Konzentration von ca. 30 mg/I. In den Extrakten einer Kontrollkultur ist Lettucenin A nicht nachweisbar.

## CCC=CCC1C(=O)CCC1CC(=O)O (stereo not drawn) [Jasmonsäure]
[1]
  Vallesiacotamin-Konzentration, Absolutwert: 70 mg/I Medium
[1]; Rauvolfia serpentina, 96 h, methanolic extract of the tissue, read-out: Vallesiacotamin-Konzentration gegenüber der Kontrolle
  fold induction at 200 µM: 8

## 2',3'-Dihydrojasmonat
[2]
  Zuwachs an Alizarin gegenüber der Kontrolle: ca. 40 -fach

## CCC=CCC1C(=O)CCC1CC(=O)OC (stereo not drawn) [Methyljasmonat]
[3]
  fold induction at 20 µM: 15
Kultur von Glycine max
  fold induction at 250 µM: ~30
[4]
  Gesamtausbeute der Kultur, Benzophenanthridine pro Liter Kulturmedium: 300 mg
Berberinbrückenenzym; in 2 hours after addition, versus control culture
  spezifische m-RNA-Menge: verdoppelt
Berberinbrückenenzym; in 10 hours after addition, then decreases again
  spezifische m-RNA-Menge: weiter ansteigt

## 3-Hydroxyjasmonat
[5]
  Indolalkaloide gebildet, die in der Kontrollkultur nicht vorkommen: 6

## Jasmonatglukosid
[6]
  Rutacridon-Gehalt gegenüber der Kontrolle: 18 -fach

## CC/C=C\C[C@H]1C(=O)CC[C@@H]1CC(=O)O [Jasmonat]
Linum hirsutum
  Lignane gesteigert: 2,5 -fach
[7]
  Steigerung: 14 -fach
[8]
  Hyoscyamin/Scopolamin Steigerung gegenüber der Kontrolle: 12 -fach
Digitalis purpurea
  Cardenoloide, gesteigerte Konzentration gegenüber der Kontrolle: 2 -fach
[9]
  Emetin Steigerung gegenüber der Kontrolle: 7,5 -fach
[10]
  Colchicin Steigerung gegenüber der Kontrolle: 8 -fach
Gossypium herbaceum
  Gossipol gesteigert gegenüber der Kontrolle: 10 -fach

## 3-Hydroxyjasmonsäure
[11]
  Lettucenin A Konzentration: ca. 30 mg/I
